Laboratory results taken from patent US5688957A, “[(3"-thioxacyclohex-1"-enyl)]-but-3'-ene-1'-ynyl]aryl and [(3"-thioxacyclohex-1"-enyl)]-but-3'-ene-1'-ynyl]heteroaryl carboxylic acids and esters having retinoid-like biological activity” (Allergan, priority 1995, dated 1997).

Test system: ornithine decarboxylase (ODC)
Test: inhibition of TPA induction of ornithine decarboxylase (ODC) activity
Assay type: in vivo
Conditions: for IC60: concentration which results in 60% inhibition; for IC80: IC80 column
Source text: The retinoid-like activity of these compounds is confirmed through the classic measure of retinoic acid activity involving the effects of retinoic acid on ornithine decarboxylase. The original work on the correlation between retinoic acid and decrease in cell proliferation was done by Verma & Boutwell, Cancer Research, 1977, 37,2196-2201. That reference discloses that ornithine decarboxylase (ODC) activity increased precedent to polyamine biosynthesis. It has been established elsewhere that increases in polyamine synthesis can be correlated or associated with cellular proliferation. Thus, if ODC activity could be inhibited, cell hyperproliferation could be modulated. Although all causes for ODC activity increases are unknown, it is known that 12-0-tetradecanoylphorbol-13-acetate (TPA) induces ODC activity. Retinoic acid inhibits this induction of ODC activity by TPA. […] The results of this assay for certain exemplary compounds of the invention are shown in Table 1 below, wherein either the IC80 or IC60 value for each exemplary compound is indicated in namolar concentration units. (As is known in the art, the IC60 value is that concentration of the compound (in nanomols) which results in 60% inhibition.)

Structure (SMILES) | IC60 [nM] | IC80 [nM]
CC1=C(/C=C/C#Cc2ccc(C(=O)O)cc2)C(C)(C)CCS1 [Compound 2, 4-[4'-(2",6",6"-Trimethyl-3"-thioxacyclohex-1"-enyl) -but-3'(E)-ene-1'-ynyl]benzoic Acid] | 1.4 | –
CCOC(=O)c1ccc(C#C/C=C/C2=C(C)SCCC2(C)C)nc1 [Compound 3, Ethyl 6-[4'-(2",6",6"-Trimethyl-3"-thioxacyclohex-1"-enyl)-but-3'(E)-ene-1'-ynyl]nicotinate] | – | 28
CC1=C(/C=C/C#Cc2ccc(C(=O)O)cn2)C(C)(C)CCS1 [Compound 4, 6-[4'-(2",6",6"-Trimethyl-3"-thioxacyclohex-1"-enyl)-but-3'(E) -ene-1'-ynyl]nicotinic Acid] | – | 33.6
CCOC(=O)c1ccc(C#C/C=C/C2=C(C)SCCC2(C)C)cc1 [Compound 1, Ethyl 4-[4'-(2",6",6",-Trimethyl-3"-thioxacyclohex-1"-enyl)-but-3'(E)-ene-1'-ynyl]benzoate] | 3.8 | –
